Data: ChEMBL document CHEMBL5230155, “Recent contributions of quinolines to antimalarial and anticancer drug discovery research” (Eur J Med Chem, 2021)
≈ marks a conversion by molar mass, not a printed value.

Assays:
[1] = tested on: Plasmodium falciparum; experiment: Antimalarial activity against CQ-resistant Plasmodium falciparum W2; format: functional, organism-based
[2] = tested on: Plasmodium falciparum; experiment: Antimalarial activity against CQ-sensitive Plasmodium falciparum D6; format: functional, organism-based
[3] = tested on: Plasmodium falciparum; experiment: microbe, parasite or virus in culture
Description: Antimalarial activity against Plasmodium falciparum

[4] = tested on: Plasmodium falciparum; experiment: microbe, parasite or virus in culture; details: NF54
Description: Antimalarial activity against CQ-sensitive Plasmodium falciparum NF54

[5] = biological target: Lysine-specific demethylase 6B (Homo sapiens) (UniProt O15054); experiment: Inhibition of JMJD3 (unknown origin) at 25 uM relative to control
Chain of Lysine-specific demethylase 6B (Homo sapiens) (O15054 whole entry): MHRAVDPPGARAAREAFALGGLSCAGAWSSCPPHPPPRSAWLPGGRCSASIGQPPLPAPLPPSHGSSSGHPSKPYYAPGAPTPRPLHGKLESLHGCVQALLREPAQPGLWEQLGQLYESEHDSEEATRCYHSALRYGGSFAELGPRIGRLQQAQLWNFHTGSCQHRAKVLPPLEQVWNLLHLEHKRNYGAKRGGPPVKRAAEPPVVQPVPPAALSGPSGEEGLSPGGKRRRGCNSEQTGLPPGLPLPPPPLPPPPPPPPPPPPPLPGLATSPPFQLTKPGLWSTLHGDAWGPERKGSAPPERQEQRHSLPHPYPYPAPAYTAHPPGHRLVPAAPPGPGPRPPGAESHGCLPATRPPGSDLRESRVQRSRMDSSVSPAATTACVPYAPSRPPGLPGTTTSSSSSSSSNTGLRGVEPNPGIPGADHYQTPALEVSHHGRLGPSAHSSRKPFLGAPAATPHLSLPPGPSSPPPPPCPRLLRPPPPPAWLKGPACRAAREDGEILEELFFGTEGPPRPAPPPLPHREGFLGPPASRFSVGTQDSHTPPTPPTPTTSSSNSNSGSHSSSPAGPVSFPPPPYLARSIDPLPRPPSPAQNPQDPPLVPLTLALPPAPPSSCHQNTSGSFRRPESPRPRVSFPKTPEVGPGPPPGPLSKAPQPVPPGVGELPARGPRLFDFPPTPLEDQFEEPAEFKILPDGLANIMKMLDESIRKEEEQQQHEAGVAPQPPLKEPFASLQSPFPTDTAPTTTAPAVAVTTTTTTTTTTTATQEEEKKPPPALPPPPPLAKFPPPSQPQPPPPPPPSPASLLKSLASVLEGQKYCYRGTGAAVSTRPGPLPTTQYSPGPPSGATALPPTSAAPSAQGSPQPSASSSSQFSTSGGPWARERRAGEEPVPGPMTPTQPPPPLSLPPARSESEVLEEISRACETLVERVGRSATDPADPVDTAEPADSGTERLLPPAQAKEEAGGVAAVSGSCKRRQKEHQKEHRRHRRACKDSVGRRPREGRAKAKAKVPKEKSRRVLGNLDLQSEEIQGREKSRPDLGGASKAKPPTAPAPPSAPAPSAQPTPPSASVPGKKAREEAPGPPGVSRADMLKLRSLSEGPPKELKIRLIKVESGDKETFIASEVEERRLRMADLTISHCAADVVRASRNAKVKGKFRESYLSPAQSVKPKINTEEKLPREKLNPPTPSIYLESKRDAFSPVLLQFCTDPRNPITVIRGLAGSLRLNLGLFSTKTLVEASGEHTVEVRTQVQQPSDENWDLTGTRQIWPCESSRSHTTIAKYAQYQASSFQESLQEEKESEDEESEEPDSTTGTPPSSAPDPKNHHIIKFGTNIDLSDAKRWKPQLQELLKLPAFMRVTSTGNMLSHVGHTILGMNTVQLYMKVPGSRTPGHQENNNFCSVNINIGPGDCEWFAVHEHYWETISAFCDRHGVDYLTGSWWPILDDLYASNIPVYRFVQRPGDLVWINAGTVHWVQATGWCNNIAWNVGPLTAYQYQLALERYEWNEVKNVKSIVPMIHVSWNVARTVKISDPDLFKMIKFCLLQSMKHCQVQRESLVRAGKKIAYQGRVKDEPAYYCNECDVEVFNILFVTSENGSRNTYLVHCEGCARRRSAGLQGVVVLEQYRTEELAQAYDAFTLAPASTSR

[6] = tested on: HeLa; experiment: Antiproliferative activity against human HeLa cells; format: functional, cell-based
[7] = tested on: MCF7; experiment: Antiproliferative activity against human MCF7 cells; format: functional, cell-based; details: Homo sapiens, MCF7
[8] = tested on: Plasmodium falciparum; experiment: Antimalarial activity against CQ-resistant Plasmodium falciparum K1; format: functional, organism-based
[9] = tested on: Plasmodium falciparum; experiment: Antimalarial activity against CQ-sensitive Plasmodium falciparum 3D7; format: functional, organism-based
[10] = biological target: Cathepsin B (Homo sapiens) (UniProt P07858); experiment: Inhibition of human cathepsin B exopeptidase activity at 50 uM relative to control
[11] = tested on: PC-3; experiment: Antiproliferative activity against human PC-3 cells; format: functional, cell-based
[12] = tested on: HepG2; experiment: Cytotoxicity against human HepG2 cells; format: functional, cell-based; details: Homo sapiens, HepG2
[13] = tested on: HCT-116; experiment: Cytotoxicity against human HCT-116 cells; format: functional, cell-based
[14] = biological target: Hepatocyte growth factor receptor (Homo sapiens, UniProt P08581); experiment: Inhibition of c-Met (unknown origin)
Chain of Hepatocyte growth factor receptor (P08581 whole entry): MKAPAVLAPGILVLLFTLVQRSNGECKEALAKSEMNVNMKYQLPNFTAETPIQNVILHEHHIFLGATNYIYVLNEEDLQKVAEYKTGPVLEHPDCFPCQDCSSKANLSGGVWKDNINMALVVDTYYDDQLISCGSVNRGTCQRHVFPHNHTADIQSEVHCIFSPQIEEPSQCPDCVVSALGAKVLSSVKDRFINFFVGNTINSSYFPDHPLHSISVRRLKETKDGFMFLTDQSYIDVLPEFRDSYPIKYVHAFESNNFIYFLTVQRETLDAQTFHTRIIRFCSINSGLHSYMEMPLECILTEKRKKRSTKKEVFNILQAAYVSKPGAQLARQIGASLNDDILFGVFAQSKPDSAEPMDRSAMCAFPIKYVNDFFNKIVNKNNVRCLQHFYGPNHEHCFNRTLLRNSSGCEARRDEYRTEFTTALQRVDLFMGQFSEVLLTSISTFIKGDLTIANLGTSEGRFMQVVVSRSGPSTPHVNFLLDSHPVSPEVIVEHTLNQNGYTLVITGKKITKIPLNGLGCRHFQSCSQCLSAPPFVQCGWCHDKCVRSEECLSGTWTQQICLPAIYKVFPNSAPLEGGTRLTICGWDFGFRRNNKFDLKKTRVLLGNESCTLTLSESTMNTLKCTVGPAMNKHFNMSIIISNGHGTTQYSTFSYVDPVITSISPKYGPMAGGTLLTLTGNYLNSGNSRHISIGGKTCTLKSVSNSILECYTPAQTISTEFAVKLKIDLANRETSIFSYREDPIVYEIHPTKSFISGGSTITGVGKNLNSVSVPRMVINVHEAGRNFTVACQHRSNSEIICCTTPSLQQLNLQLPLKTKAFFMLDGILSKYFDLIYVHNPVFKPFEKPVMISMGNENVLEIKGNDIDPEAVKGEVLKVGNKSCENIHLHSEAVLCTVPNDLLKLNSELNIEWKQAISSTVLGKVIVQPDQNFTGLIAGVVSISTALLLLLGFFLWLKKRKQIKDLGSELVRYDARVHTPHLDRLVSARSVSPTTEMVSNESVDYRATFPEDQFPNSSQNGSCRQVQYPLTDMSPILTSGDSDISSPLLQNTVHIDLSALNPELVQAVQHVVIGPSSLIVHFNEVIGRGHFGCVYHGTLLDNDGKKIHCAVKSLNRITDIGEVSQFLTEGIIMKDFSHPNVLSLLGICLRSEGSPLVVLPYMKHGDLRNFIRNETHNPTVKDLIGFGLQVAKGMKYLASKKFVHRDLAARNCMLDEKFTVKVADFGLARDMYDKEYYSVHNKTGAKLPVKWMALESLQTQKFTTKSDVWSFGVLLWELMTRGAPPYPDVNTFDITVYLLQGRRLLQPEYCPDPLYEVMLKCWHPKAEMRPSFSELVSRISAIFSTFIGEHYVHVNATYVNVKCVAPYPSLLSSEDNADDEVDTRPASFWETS

[15] = Binding affinity to human nRNP

O=C1c2ccc(N3CCN(CCO)CC3)cc2C(=O)N1CCCCNc1ccnc2cc(Cl)ccc12
IC50 [1]: 6 nM

Cc1c(Cl)ccc2cc(/C=C/C(=O)c3ccc(Br)s3)c(Cl)nc12
IC50 [1]: < 50 nM | IC50 [2]: < 50 nM

COc1ccc(Nc2ccnc3cc(-c4ccc(S(=O)(=O)N5CCN(C)CC5)cc4)ccc23)cc1Cl
EC50 [2]: 12 nM

C=C[C@H]1CN2CC[C@H]1C[C@H]2[C@H](O)c1ccnc2ccc(OC)cc12 [QUININE]
IC50 [3]: 0.26 µg/mL (≈ 0.801 µM) | IC50 [4]: 22 nM

N=C(N=C(N)N)SCCCCNc1ccnc2cc(Cl)ccc12
IC50 [1]: 430 nM | IC50 [2]: 610 nM

COc1ccc(F)cc1-c1cnc2c(C(=O)O)ccc(C(=O)O)c2c1
inhibition [5]: 0%

O=C1c2cccc(N3CCOCC3)c2C(=O)N1CCCCCCNc1ccnc2cc(Cl)ccc12
IC50 [1]: 6 nM

O=C1c2ccc(N3CCOCC3)cc2C(=O)N1CCCCCCNc1ccnc2cc(Cl)ccc12
IC50 [1]: 6 nM

Cc1c(Cl)ccc2cc(/C=C/C(=O)c3ccccc3Br)c(Cl)nc12
IC50 [1]: < 50 nM | IC50 [2]: < 50 nM

COc1ccc2nccc([C@@H](O)C3CC4CCN3CC4c3ccc(C(F)(F)F)cc3)c2c1 (mixture of isomers)
IC50 [4]: 5 nM

N#CN=C(NCCCCCCOc1ccc(Cl)cc1)Nc1ccncc1 [CHS-828]
IC50 [6]: 40 nM

Cc1c(Cl)ccc2cc(/C=C/C(=O)c3ccc(Cl)cc3)c(Cl)nc12
IC50 [1]: < 50 nM | IC50 [2]: < 50 nM

Cc1nc2ccccc2c(C)c1C(=O)NNC(=S)Nc1ccccc1
IC50 [3]: 0.02 µg/mL (≈ 0.0571 µM)

Cc1cc(S(=O)(=O)c2ccc(C#N)cc2)c2ccccc2n1
IC50 [7]: 1380 nM

O=C(NNC(=S)Nc1cccc(Cl)c1)c1cc(-c2ccccc2Cl)nc2ccccc12
IC50 [3]: < 0.3 µg/mL

FC(F)(F)c1ccc(-c2cncn2CCNc2ccnc3cc(Cl)ccc23)cc1
IC50 [8]: 290 nM | IC50 [9]: 79 nM

O=C(NNC(=S)NC1CCCCC1)c1cc(-c2ccccc2Cl)nc2ccccc12
IC50 [3]: < 0.3 µg/mL

O=C(NCc1ccccc1)c1cc([N+](=O)[O-])c2cccnc2c1O
inhibition [10]: 19.4%

O=C(NNC(=S)Nc1ccc([N+](=O)[O-])cc1)c1cc(-c2ccc(F)cc2F)nc2ccc(F)cc12
IC50 [3]: 0.1 µg/mL (≈ 0.201 µM)

C#Cc1ccc(-c2cn(CCNc3ccnc4cc(Cl)ccc34)nn2)cc1F
IC50 [8]: 160 nM | IC50 [4]: 140 nM

Cc1cccc2cc(CNC3CCOC(C)(C)C3)c(N3CCCC3)nc12 (stereo unspecified)
IC50 [8]: 173 nM | IC50 [4]: 22 nM

COc1ccc(C2CN3CCC2CC3[C@H](O)c2ccnc3ccc(OC)cc23)cc1 (mixture of isomers)
IC50 [4]: 5 nM

O=C(O)c1ccc(-c2cnc3c(C(=O)O)ccc(C(=O)O)c3c2)s1
inhibition [5]: 0%

COc1ccc2nc(-c3ccccc3)cc(C(=O)O)c2c1
IC50 [3]: 0.12 µg/mL (≈ 0.43 µM)

CC(O)(CS(=O)(=O)c1ccc(F)cc1)C(=O)Nc1ccc(C#N)c(C(F)(F)F)c1 (stereo unspecified) [BICALUTAMIDE]
IC50 [11]: 1300 nM

CCOC(=O)C(C#N)C(=O)c1cc(/C=C/c2ccc(N(C)C)cc2)nc2ccc(Br)cc12 (stereo unspecified)
IC50 [12]: 7.7 µg/mL | IC50 [13]: 7.7 µg/mL (≈ 15.6 µM)

CN(C)c1ccc(/C=C/c2cc(C(=O)O)c3cc(Br)ccc3n2)cc1
IC50 [12]: 7.7 µg/mL | IC50 [13]: 7.7 µg/mL (≈ 19.4 µM)

COc1cc2nccc(Oc3ccc(NC(=O)C4(C(=O)Nc5ccc(F)cc5)CC4)cc3)c2cc1OC(=O)c1ccc([N+](=O)[O-])cc1
IC50 [14]: 19 nM

Cc1c(Cl)ccc2cc(/C=C/C(=O)c3cccc(Br)c3)c(Cl)nc12
IC50 [1]: < 50 nM | IC50 [2]: < 50 nM

[2H]c1ccc2cc(C(F)(F)c3nnc4ccc(-c5cnn(C)c5)nn34)ccc2n1
IC50 [14]: 2.6 nM

O=C(NCc1ccc(F)cc1)c1cc([N+](=O)[O-])c2cccnc2c1O
inhibition [10]: 19.4%

OCc1cc(-c2cn(-c3ccc(Cl)cc3Cl)nc2-c2ccccc2)nc2ccccc12
IC50 [3]: 0.036 µg/mL (≈ 0.0807 µM)

O=C(N/N=C/c1cc(O)ccc1O)c1ccc(Nc2ccnc3ccccc23)cc1
IC50 [12]: 27300 nM

CN(C)CCNCc1ccc(-c2cc(-c3ccc(CNCCN(C)C)cc3)c3ccccc3n2)cc1
IC50 [12]: 3100 nM | IC50 [1]: 340 nM | IC50 [9]: 32 nM

Cc1cc(S(=O)(=O)c2ccccc2[N+](=O)[O-])c2ccccc2n1
IC50 [7]: 1380 nM

CCCCCCCCOc1c(OC)cc(NC(C)CCCN)c2nc(C(C)(C)C)ccc12 (stereo unspecified)
IC50 [1]: 0.022 µg/mL | IC50 [2]: 0.02 µg/mL

CC(C)c1ccc(-c2cncn2CCNc2ccnc3cc(Cl)ccc23)cc1
IC50 [8]: 290 nM | IC50 [9]: 79 nM

CCCCCCOc1c(OC)cc(NC(C)CCCN)c2nc(C(C)(C)C)ccc12 (stereo unspecified)
IC50 [1]: 0.022 µg/mL | IC50 [2]: 0.02 µg/mL

O=C(O)c1cc(-c2ccccc2)nc2ccc(Cl)cc12
IC50 [3]: 0.12 µg/mL (≈ 0.423 µM)

CCCCCCCOc1c(OC)cc(NC(C)CCCN)c2nc(C(C)(C)C)ccc12 (stereo unspecified)
IC50 [1]: 0.022 µg/mL | IC50 [2]: 0.02 µg/mL

COc1ccccc1NC(=S)NNC(=O)c1cc(-c2ccccc2Cl)nc2ccccc12
IC50 [3]: < 0.3 µg/mL

CC(C)NC(=S)NNC(=O)c1cc(-c2ccccc2Cl)nc2ccccc12
IC50 [3]: < 0.3 µg/mL

C=C[C@@H]1CN2CC[C@@H]1C[C@@H]2[C@@H](O)c1ccnc2ccc(OC)cc12
IC50 [4]: 122 nM

COc1cc2nccc(Oc3ccc(NC(=O)C4(C(=O)Nc5ccc(F)cc5)CC4)cc3)c2cc1O
IC50 [14]: 19 nM

NS(=O)(=O)c1ccc(-c2cnc3c(C(=O)O)ccc(C(=O)O)c3c2)cc1
inhibition [5]: 0%

O=C(NNC(=S)Nc1ccccc1)c1cc(-c2c(F)cccc2F)nc2ccc(C(F)(F)F)cc12
IC50 [3]: 0.1 µg/mL (≈ 0.199 µM)

CC1(C)CC(NCc2cc3cccc(Cl)c3nc2N2CCCC2)CCO1 (stereo unspecified)
IC50 [4]: 24 nM

CN(C)C/C=C/C(=O)Nc1cc2c(Nc3ccc(F)c(Cl)c3)ncnc2cc1O[C@H]1CCOC1 [AFATINIB]
IC50 [12]: 5.3 µg/mL | IC50 [13]: 5.3 µg/mL (≈ 10.9 µM)

O=C(NNC(=S)Nc1ccc([N+](=O)[O-])cc1)c1cc(-c2ccccc2Cl)nc2ccccc12
IC50 [3]: < 0.3 µg/mL

C#Cc1ccc(-c2cn(CCNc3ccnc4cc(Cl)ccc34)nn2)cc1
IC50 [8]: 160 nM | IC50 [4]: 140 nM

O=C1c2ccc(N3CCN(CCO)CC3)cc2C(=O)N1CCCNc1ccnc2cc(Cl)ccc12
IC50 [1]: 6 nM

COc1cc2nccc(Oc3ccc(NC(=O)C4(C(=O)Nc5c(F)cc(F)cc5F)CC4)cc3)c2cc1Oc1ccc(N)cn1
IC50 [14]: 19 nM

Cc1ccc(NC(=S)NNC(=O)c2c(C)nc3ccccc3c2C)cc1
IC50 [3]: 0.02 µg/mL (≈ 0.0549 µM)

COCCCNC(=O)c1cc([N+](=O)[O-])c2cccnc2c1O
inhibition [10]: 19.4%

O=C(NNC(=S)Nc1cc(Cl)cc(Cl)c1)c1cc(-c2ccc(F)cc2F)nc2cc(Cl)c(F)cc12
IC50 [3]: 0.1 µg/mL (≈ 0.18 µM)

COc1cccc(NC(=S)NNC(=O)c2cc(-c3ccc(C(F)(F)F)cc3)nc3ccc(F)cc23)c1
IC50 [3]: 0.1 µg/mL (≈ 0.194 µM)

OCCNCCNc1ccnc2cc(Cl)ccc12
IC50 [1]: 305 nM | IC50 [9]: 18.9 nM

Cc1ccc2nc(/C=C/c3ccc(N(C)C)cc3)cc(C(=O)O)c2c1
IC50 [12]: 7.7 µg/mL | IC50 [13]: 7.7 µg/mL (≈ 23.2 µM)

COc1ccc(C(=O)/C=C/c2cc(N3CCOCC3)c3cc(F)ccc3n2)cc1
Kd [15]: 4600 nM

Cc1ccc2nc(-c3cn(-c4ccc(Cl)cc4)nc3-c3ccccc3)cc(C(=O)NCCCN(C)C)c2c1
IC50 [3]: 0.0879 µg/mL (≈ 0.168 µM)

Cc1ccsc1-c1cncn1CCNc1ccnc2cc(Cl)ccc12
IC50 [8]: 290 nM | IC50 [9]: 79 nM

COc1cc(-c2cnc3c(C(=O)O)ccc(C(=O)O)c3c2)ccc1F
inhibition [5]: 0%

COc1cc(-c2cnc3c(C(=O)O)ccc(C(=O)O)c3c2)c(OC)nn1
inhibition [5]: 0%

O=C(NCCO)c1cc([N+](=O)[O-])c2cccnc2c1O
inhibition [10]: 19.4%

O=C(/C=C/C(=O)Nc1cccc(F)c1)NCCCCNc1cc(C(F)(F)F)nc2c(C(F)(F)F)cccc12
IC50 [9]: 2900 nM

CC(C)NC(=O)c1cc([N+](=O)[O-])c2cccnc2c1O
inhibition [10]: 19.4%

O=C(NNC(=S)Nc1c(F)cccc1F)c1cc(-c2ccccc2Br)nc2c(Cl)cc(C(F)(F)F)cc12
IC50 [3]: 0.1 µg/mL (≈ 0.162 µM)

O=C(/C=C/c1cc(N2CCOCC2)c2cc([N+](=O)[O-])ccc2n1)c1ccc(O)cc1
Kd [15]: 4600 nM

CCCCNC(=O)c1cc([N+](=O)[O-])c2cccnc2c1O
inhibition [10]: 19.4%

O=C(/C=C/c1cc(N2CCOCC2)c2ccccc2n1)c1ccc(O)cc1
Kd [15]: 4600 nM

Cc1cc(C)c(S(=O)(=O)Oc2ccc(Cl)c3cccnc23)c(C)c1
IC50 [7]: 1380 nM

COc1ccc(C(=O)/C=C/c2cc(N3CCOCC3)c3ccccc3n2)cc1
Kd [15]: 4600 nM

Cc1c(Cl)ccc2cc(/C=C/C(=O)c3csc(Cl)c3)c(Cl)nc12
IC50 [1]: < 50 nM | IC50 [2]: < 50 nM

OCc1cc(-c2cn(-c3ccc(Cl)cc3)nc2-c2ccccc2)nc2ccccc12
IC50 [3]: 0.092 µg/mL (≈ 0.223 µM)

COc1ccc(C(=O)/C=C/c2cc(N3CCOCC3)c3cc(OC)ccc3n2)cc1
Kd [15]: 4600 nM

CCN(CC)c1ccc2c(c1)C(=O)N(CCC(=O)NCCNc1ccnc3cc(Cl)ccc13)C2=O
IC50 [1]: 97 nM

COc1ncc(-c2cnc3c(C(=O)O)ccc(C(=O)O)c3c2)c(OC)n1
inhibition [5]: 90%

CN(C)c1ccc(/C=C/c2cc(-c3nnc(N)s3)c3cc(Br)ccc3n2)cc1
IC50 [12]: 7.7 µg/mL | IC50 [13]: 7.7 µg/mL (≈ 17 µM)

CCCCCOc1c(OC)cc(NC(C)CCCN)c2nc(C(C)(C)C)ccc12 (stereo unspecified)
IC50 [1]: 0.022 µg/mL | IC50 [2]: 0.02 µg/mL

O=C1c2ccc(N3CCN(CCO)CC3)cc2C(=O)N1CCCCCCNc1ccnc2cc(Cl)ccc12
IC50 [1]: 6 nM

O=C(NC1CCCCC1)c1cc([N+](=O)[O-])c2cccnc2c1O
inhibition [10]: 19.4%

Cn1cc(-c2ccc3nnc(C(F)(F)c4ccc5ncccc5c4)n3n2)cn1 [JNJ-38877605]
IC50 [14]: 1.7 nM

O=C(NNC(=S)Nc1ccc(Cl)cc1Cl)c1cc(-c2ccccc2Cl)nc2ccccc12
IC50 [3]: < 0.3 µg/mL

Clc1ccc2c(NCCn3cncc3C3CCCC3)ccnc2c1
IC50 [8]: 290 nM | IC50 [9]: 79 nM

Cc1ccc(S(=O)(=O)Oc2ccc(Cl)c3cccnc23)cc1
IC50 [7]: 1380 nM

CC(C)(C)c1cncn1CCNc1ccnc2cc(Cl)ccc12
IC50 [8]: 290 nM | IC50 [9]: 79 nM

C#Cc1ccc(-c2cn(CCNc3ccnc4cc(Cl)ccc34)nn2)c(F)c1
IC50 [8]: 160 nM | IC50 [4]: 140 nM

O=C(/C=C/c1cc(N2CCOCC2)c2cc(O)ccc2n1)c1ccc(Cl)cc1
Kd [15]: 20100 nM
